According to patent US20140127185A1, “METHODS AND COMPOSITIONS USING NEUROPROTECTIVE STEROIDS AND THROMBOLYTIC AGENTS” (priority 2012, published 2014):

Legend:
MMP-9 [1] = test: Active MMP-9 fluorometric FRET peptide assay of ischemic cortex lysates; type: in vivo, rat; conditions: 24 hours after ischemia; tPA at 4.5 hours; vs control and tMCAO groups
Description: A Fluorimetric SensoLyte™ 490 kit (AnaSpec Corp., San Jose, Calif. USA) is used to quantify the specific enzymetic activity of active MMP-9 by using a fluorescence resonance energy transfer peptide containing a fluorescent donor and quenching acceptor (Lin, Hou et al. 2008). The samples (100 μg) are placed in a 96-well plate containing 50 μl of assay buffer. The proteolytic resonance energy transfer peptide is expressed as a fold change in fluorescence intensity at excitation of 355 nm/emission of 460 nm.
For in vivo evaluation, Male SD rats were subjected to MCAO, reperfused at 4.5 hours and then treated with tPA only (5 mg/kg body weight via femoral vein) at 4.5 hours post-stroke or with progesterone (intraperitoneally) at 2 hours post-stroke plus tPA at 4.5 hours post-stroke. Rats were killed at 24 hours post-ischemia and their brains perfused for evaluation of cerebral hemorrhage, brain swelling, BBB permeability, MMP-9 activity, and the alteration of tight junction proteins.
To directly determine MMP-9 activity after ischemia, proteolytic activity of MMP-9 was measured using a fluorescence resonance energy transfer peptide. […] Consistent with the Western blot results, exposure of cells to H/R and tPA for 9 hours reduced the detected levels of occludin, as compared to control bEND 3 cells, while MMP-9 levels were increased in cells exposed to H/R and tPA for 9 hours.

MMP-9 [2] = test: MMP-9 levels in bEND3 cells exposed to H/R and tPA; type: cell-based, mouse; conditions: bEND3 cells exposed to H/R and tPA for 9 hours; progesterone pretreatment
Description: The bEnd 3 cells grown to confluence on coverslips are subjected to the indicated treatments. For […], cells are washed three times with PBS, fixed in 3% paraformaldehyde for 10 minutes, permeabilized with 02% Triton X-100 in PBS for 10 minutes and blocked with 10% BSA and 0.1% Triton X-100 in PBS for 1 hour. After washing with PBS, the monolyers are incubated with a primary antibody for occludin (Invitrogen, 1:200) and MMP-9 (Abeam, Mass., USA, 1:200) overnight at 4° C. The cell monolayers are then washed 3 times with PBS and incubated with Alexa Fluor 488 anti-rabbit and orange anti-mouse (Molecular Probes, Eugene, Oreg.) for 1 hour. After washing in PBS, the coverslips are mounted on glass slides with Vectasheild with dapi (Vecta Laboratories).
To mimic ischemia-like conditions in vitro, immortalized mouse brain endothelial (bEND3) cells were exposed to 6 hours of hypoxia and 3 hours of reoxygeneation with or without the administration of tPA at a dose of 20 μ/ml. […] BBB integrity was evaluated by transendothelial membrane electrical resistance (TEER) measurement, MMP-9 activity, and the alteration of tight junction proteins following in vitro H/R injury.
To directly determine MMP-9 activity after ischemia, proteolytic activity of MMP-9 was measured using a fluorescence resonance energy transfer peptide. […]

[3] = test system: rats with MCAO induced by homologous blood clots; test: Delayed tPA to cause hemorrhage: embolic MCAO model of hemorrhagic transformation; type: in vivo, rat; conditions: recombinant tPA 10 mg/kg through the tail vein at 4.5 hours post MCAO-induction
Description: A focal thromboembolic model of cerebral ischemia is induced in rats by middle cerebral artery occlusion (MCAO) via the fibrin-rich clots technique under isoflurane anesthesia. Surgical anesthesia is induced with isoflurane (5% induction, 2% maintenance, […]). Rats are cannulated with a femoral artery catheter for measurement of arterial blood gases, pH (Ciba-Corning 248 pH/blood gas analyzer), blood glucose, hematocrit and mean arterial blood pressure. The body temperature of the animals is maintained at […] with a heating pad controlled by rectal thermistors. A closed cranial window is made in the right parietal skull (2 mm posterior, 6 mm lateral to bregma) for laser doppler probe placement. The rats are mounted on a modified stereotaxic frame equipped with a facemask. The right common carotid artery (CCA), the right internal carotid artery (ICA) and the right external carotid artery (ECA) are exposed by a ventral incision in throat. After surgical preparation of the right CCA and ligation of the pterygo-palatine artery, a PE10 catheter is inserted into the ECA. The tip of the catheter is placed close to the carotid bifurcation. To achieve thromboembolic occlusion of the right middle cerebral artery, 12 medium-sized fibrin rich clots suspended in phosphate with phosphate buffered saline (0.3 ml) are injected by a 1 ml syringe connected to the catheter. […]

tPA: serum protease acting specifically on serum plasminogen; also known as alteplase, available commercially as Activase
MMP-9 activity (FRET peptide) (MMP-9 [1]): significantly higher | MMP-9 levels (MMP-9 [2]): increased | Hemispheric enlargement and hemorrhage [3]: significant hemispheric enlargement and hemorrhage
